Laboratory results: patent US20230128114A1, “METHODS AND COMPOSITIONS FOR TREATING OR PREVENTING AN INFLAMMATORY CONDITION” (priority 2020, published 2023)

How the values were obtained:
[1] = Solubility of formulations for in vivo analysis (visual observation); type: physicochemical
Text: Cannabidiol (CBD) and hydroxychloroquine (HCQ), were purchased by Pharmacology Discovery Services Taiwan, Ltd. The formulations are summarised in Table 3.

[2] = tested on: LPS-induced pulmonary inflammation; assay: LPS-induced pulmonary inflammation: BALF cytokines, synergy analysis; type: in vivo, C57BL/B6 mice; conditions: CBD 1 mg/kg, HCQ 25 mg/kg, alone or combined; observed
[3] = tested on: LPS-induced pulmonary inflammation; assay: as above; type: in vivo, C57BL/B6 mice; conditions: HCQ 25 mg/kg, alone or combined, observed; for IL-1β, relative inhibition of cytokine release (BALF) / MCP-1, relative inhibition of cytokine release (BALF) / TNF-α, relative inhibition of cytokine release (BALF): CBD 1 mg/kg; for CXCL-1, relative inhibition of cytokine release (BALF): CBD 10 mg/kg
Protocol: Male C57BL/B6 mice weighing 10-20 g were used. Vehicle and active agents (i.e., CBD and hydroxychloroquine) alone or in combination were administered intraperitoneally (IP) at 1 hour before LPS (˜80 mg/kg) was administered intratracheally. 24 hours after LPS injection, mice were anaesthetized with pentoparbital and 0.5 mL of PBS was administered twice through a tracheal cannula after which approximately 0.6 mL of broncheoalveolar lavage fluid (BALF) was obtained. The BALF was assayed for IL-1β, TNF-α, MCP-1(MCAF) and CXCL-1 by Luminex. ANOVA followed by Dunnett's test was applied for comparison between vehicle and treatment groups. p<0.05 was considered significant.
For synergy analysis, data were baseline subtracted using the cytokine levels of sham treated mice (i.e., no LPS injection), before normalising the values for each cytokine relative to maximum values across the groups. The normalised values were used to calculate the relative inhibition where a value of 1 represents complete inhibition and a value of 0 represents no inhibition. Synergy was calculated using the statistical methods described elsewhere herein.
Drug synergy was determined using the Bliss Independence method where the predicted effect of the drug combination is calculated using the equation: […]

Compound | Solubil. [1] | IL-6, relative inhibition of cytokine release (BALF) [2] | IL-1β, relative inhibition of cytokine release (BALF) [3] | MCP-1, relative inhibition of cytokine release (BALF) [3] | TNF-α, relative inhibition of cytokine release (BALF) [3] | CXCL-1, relative inhibition of cytokine release (BALF) [3]
CCN(CCO)CCCC(C)Nc1ccnc2cc(Cl)ccc12 (centres unmarked) [HCQ] | S | 0.08 | 0.20 | 0.09 | 0.14 | 0.35
C=C(C)[C@@H]1CCC(C)=C[C@H]1c1c(O)cc(CCCCC)cc1O [CBD, cannabidiol] |  | 0.15 | 0.03 | 0.07 | 0.23 | 0.14
